In patent US12281363B2, “Methods for detecting antiviral-drug resistant virus” (Secretary of State for Health and Social Care, priority 2018, dated 2025):
Where two headings read alike, the source gives them in different places.

Test system: HSV-1
Assay: Plaque reduction assay, HSV-1 clinical isolates on Vero cells
Assay type: cell-based
Conditions: Human alphaherpesvirus 1, Vero
From the text: Viral isolates were used to infect a sub-confluent monolayer of Vero cells at a concentration of 75 or 50 plaque forming units (PFU) per well for HSV-1 and HSV-2, respectively. […] CMC medium typically used to create a semisolid interface and prevents indiscrimate viral spreading. Other materials (e.g. agar) may also be used to create this interface.
Cells were fixed with 10% formalin and stained with crystal violet before enumeration of the plaques (microscopic observation or use of fluorescent antibodies for detection is also suitable). The data obtained from these experiments were then expressed as percent inhibition of viral infectivity relative to the no drug control.
Definitions of phenotypic drug susceptibility classification as sensitive or resistant were as follows: ACV, <3 μM or >40 μM; PCV, <10 μM or >40 μM; CDV, <24 μM or >30 μM; FOS, <250 μM or >400 μM; and ACV, <6.5 μM or >40 μM; PCV, <38 μM or >40 μM; FOS, <250 μM or >400 μM for HSV-1 and HSV-2, respectively. Any IC50 values falling in between these sensitive and resistant cut-offs were reported as intermediate resistance.
The phenotype (i.e. reactivity to a drug) of the virus was characterised by the plaque reduction assay as described above.

Nc1ccn(C[C@@H](CO)OCP(=O)(O)O)c(=O)n1 [Cidofovir, cidofovir]
IC50 (isolate HPG032, HSV-1 TK 183* (437_438insA), read-out: Drug susceptibility Cidofovir (CDV)): < 24 µM
IC50 (isolate HPG033, HSV-1 TK I358L (1072A>C), also TK T287M, read-out: Drug susceptibility (IC50 value)): 15 µM
IC50 (isolate HPG033, HSV-1 TK I358L (1072A>C), also TK T287M, read-out: Drug susceptibility Cidofovir (CDV)): < 24 µM
IC50 (isolate HPG033, HSV-1 pol N1046T (3137A>C), also TK T287M, pol A1169T, read-out: Drug susceptibility (IC50 value)): 15 µM
IC50 (isolate HPG033, HSV-1 pol N1046T (3137A>C), also TK T287M, pol A1169T, read-out: Drug susceptibility Cidofovir (CDV)): < 24 µM
IC50 (isolate HPG035, HSV-1 pol S239L (716C>T), also pol S724N, read-out: Drug susceptibility (IC50 value)): 39.6 µM
IC50 (isolate HPG035, HSV-1 pol S239L (716C>T), also pol S724N, read-out: Drug susceptibility Cidofovir (CDV)): > 30 µM
IC50 (isolate HPG037, HSV-1 TK L69M (205>A), also TK Y239H, read-out: Drug susceptibility Cidofovir (CDV)): < 24 µM
IC50 (isolate HPG037, HSV-1 TK R256W (766C>T), read-out: Drug susceptibility (IC50 value)): 4.39 µM
IC50 (isolate HPG037, HSV-1 TK R256W (766C>T), read-out: Drug susceptibility Cidofovir (CDV)): < 24 µM
IC50 (isolate HPG037, HSV-1 TK Y239H (715T>C), read-out: Drug susceptibility (IC50 value)): 4.39 µM
IC50 (isolate HPG037, HSV-1 TK Y239H (715T>C), read-out: Drug susceptibility Cidofovir (CDV)): < 24 µM
IC50 (isolate HPG039, HSV-1 TK 85* or H58fs (169delC, 170delC, 171delC, or 172delC), read-out: Drug susceptibility (IC50 value)): 2.97 µM
IC50 (isolate HPG039, HSV-1 TK 85* or H58fs (169delC, 170delC, 171delC, or 172delC), read-out: Drug susceptibility Cidofovir (CDV)): < 24 µM
IC50 (isolate HPG040, HSV-1 pol S911N (2732G>A), also TK deletion (C) nt 896-900, pol A1169T, read-out: Drug susceptibility (IC50 value)): 11.3 µM
IC50 (isolate HPG040, HSV-1 pol S911N (2732G>A), also TK deletion (C) nt 896-900, pol A1169T, read-out: Drug susceptibility Cidofovir (CDV)): < 24 µM
IC50 (isolate HPG041, HSV-1 pol S911N (2732G>A), also pol A1169T, read-out: Drug susceptibility (IC50 value)): 18 µM
IC50 (isolate HPG041, HSV-1 pol S911N (2732G>A), also pol A1169T, read-out: Drug susceptibility Cidofovir (CDV)): < 24 µM
IC50 (isolate HPG042, HSV-1 pol A972V (2915C>T), also TK deletion (C) nt 881-885, pol A1169T, read-out: Drug susceptibility (IC50 value)): < 1.56 µM
IC50 (isolate HPG042, HSV-1 pol A972V (2915C>T), also TK deletion (C) nt 881-885, pol A1169T, read-out: Drug susceptibility Cidofovir (CDV)): < 24 µM
IC50 (isolate HPG042, HSV-1 pol G22R (64G>A), also TK deletion (C) nt 881-885, pol A1169T, read-out: Drug susceptibility (IC50 value)): < 1.56 µM
IC50 (isolate HPG042, HSV-1 pol G22R (64G>A), also TK deletion (C) nt 881-885, pol A1169T, read-out: Drug susceptibility Cidofovir (CDV)): < 24 µM
IC50 (isolate HPG043, HSV-1 TK 183* (437_438insA), read-out: Drug susceptibility (IC50 value)): 1.65 µM
IC50 (isolate HPG043, HSV-1 TK 183* (437_438insA), read-out: Drug susceptibility Cidofovir (CDV)): < 24 µM
IC50 (isolate HPG045, HSV-1 TK L49R (146T>G), read-out: Drug susceptibility (IC50 value)): < 1.56 µM
IC50 (isolate HPG045, HSV-1 TK L49R (146T>G), read-out: Drug susceptibility Cidofovir (CDV)): < 24 µM
IC50 (isolate HPG045, HSV-1 pol L419I (1255C>A), also TK L49R, pol A1169T, read-out: Drug susceptibility (IC50 value)): < 1.56 µM
IC50 (isolate HPG045, HSV-1 pol L419I (1255C>A), also TK L49R, pol A1169T, read-out: Drug susceptibility Cidofovir (CDV)): < 24 µM
IC50 (isolate HPG046, HSV-1 TK I166N (497T>A), read-out: Drug susceptibility (IC50 value)): 2.1 µM
IC50 (isolate HPG046, HSV-1 TK I166N (497T>A), read-out: Drug susceptibility Cidofovir (CDV)): < 24 µM
IC50 (isolate HPG047, HSV-1 pol E680 (2039A>C), also TK deletion (C) nt 548-553, pol A1169T, read-out: Drug susceptibility Cidofovir (CDV)): < 24 µM
IC50 (isolate HPG051, HSV-1 pol D83A (248A>C), also TK R176stop, read-out: Drug susceptibility (IC50 value)): 4.94 µM
IC50 (isolate HPG051, HSV-1 pol D83A (248A>C), also TK R176stop, read-out: Drug susceptibility Cidofovir (CDV)): < 24 µM
IC50 (isolate HPG052, HSV-1 TK Q34* (100C>T), read-out: Drug susceptibility (IC50 value)): 4.77 µM
IC50 (isolate HPG052, HSV-1 TK Q34* (100C>T), read-out: Drug susceptibility Cidofovir (CDV)): < 24 µM
IC50 (isolate HPG053, HSV-1 pol L802R + A834S (2405T>G, 2500G>T), also TK R176W, read-out: Drug susceptibility Cidofovir (CDV)): < 24 µM
IC50 (isolate HPG053, HSV-1 pol S911N (2732G>A), also TK R176W, pol A1169T, read-out: Drug susceptibility (IC50 value)): 7.72 µM
IC50 (isolate HPG053, HSV-1 pol S911N (2732G>A), also TK R176W, pol A1169T, read-out: Drug susceptibility Cidofovir (CDV)): < 24 µM
IC50 (isolate HPG054, HSV-1 pol E992K (2974G>A), also TK insert (G) nt 430-436, pol A1169T, read-out: Drug susceptibility (IC50 value)): 3.85 µM
IC50 (isolate HPG054, HSV-1 pol E992K (2974G>A), also TK insert (G) nt 430-436, pol A1169T, read-out: Drug susceptibility Cidofovir (CDV)): < 24 µM
IC50 (isolate HPG055, HSV-1 TK V204G (611T>G), also pol A1169AT, read-out: Drug susceptibility (IC50 value)): < 1.56 µM
IC50 (isolate HPG055, HSV-1 TK V204G (611T>G), also pol A1169AT, read-out: Drug susceptibility Cidofovir (CDV)): < 24 µM
IC50 (read-out: Drug susceptibility (IC50 value), isolate HPG005, HSV-1 TK A192T (574G>A)): 2.21 µM
IC50 (read-out: Drug susceptibility (IC50 value), isolate HPG006, HSV-1 pol G121S (361G>A), also a TK resistance mutation (footnote a)): 6.14 µM
IC50 (read-out: Drug susceptibility (IC50 value), isolate HPG012, HSV-1 pol G985E (2954G>A), also TK A93V): 2.84 µM
IC50 (read-out: Drug susceptibility (IC50 value), isolate HPG016, HSV-1 pol A1169T (3505G>A)): 16.5 µM
IC50 (read-out: Drug susceptibility (IC50 value), isolate HPG037, HSV-1 TK L69M (205>A), also TK Y239H): 4.39 µM
IC50 (read-out: Drug susceptibility (IC50 value), isolate HPG042, HSV-1 TK frameshift (881delC to 885delC)): < 1.56 µM
IC50 (read-out: Drug susceptibility (IC50 value), isolate HPG047, HSV-1 pol E680 (2039A>C), also TK deletion (C) nt 548-553, pol A1169T): 2.88 µM
IC50 (read-out: Drug susceptibility Cidofovir (CDV), isolate HPG005, HSV-1 TK A192T (574G>A)): < 24 µM
IC50 (read-out: Drug susceptibility Cidofovir (CDV), isolate HPG006, HSV-1 pol G121S (361G>A), also a TK resistance mutation (footnote a)): < 24 µM
IC50 (read-out: Drug susceptibility Cidofovir (CDV), isolate HPG012, HSV-1 pol G985E (2954G>A), also TK A93V): < 24 µM
IC50 (read-out: Drug susceptibility Cidofovir (CDV), isolate HPG016, HSV-1 pol A1169T (3505G>A)): < 24 µM
IC50 (read-out: Drug susceptibility Cidofovir (CDV), isolate HPG042, HSV-1 TK frameshift (881delC to 885delC)): < 24 µM
